pEC50, pIC50: −log10 of the molar value. Like-named read-outs stand apart in the source and are kept apart here. One block for each compound: values may come before it.
Experiments:
[1] = system: GSK-3β; settings: read-out: GSK-3β inhibition IC50; cited from earlier work
[2] = system: Aβ42 induced neurotoxicity in SH-SY5Y cells; settings: cited from earlier work
[3] = biological target: T1, GSK-3β (Homo sapiens, UniProt P49841); assay: ADP-Glo kinase luminescent assay, GSK-3β inhibition; format: biochemical; settings: for Ligand-lipophilic efficiency (LiPE): LiPE = pIC50 – CLogP
[4] = system: GSK-3β mediated tau phosphorylation at pS396; assay: SH-SY5Y whole-cell lysate GSK-3β assay with human tau pS396 ELISA; format: biochemical; settings: for effect on GSK-3β mediated tau hyperphosphorylation (pS396): 2, 10 and 50 μM, 2 h, 37 °C, lysate fortified with 0.25% GSK-3β, ELISA
[5] = Parallel artificial membrane permeability assay; settings: PAMPA; for Papp at 5 h, 20 μM: pH 7.4, PAMPA permeability classification, pH 7.4, 5 h
[6] = biological target: T1, GSK-3β; assay: GSK-3β kinetic studies; format: biochemical; settings: 30 0 to 5 μM
[7] = system: panel of 41 human protein kinases; assay: Kinase selectivity screening, panel of 41 human protein kinases; format: biochemical; settings: 5 μM
[8] = system: SH-SY5Y cells; assay: Cytotoxicity assessment in SH-SY5Y cells; format: cell-based, human; settings: 72 h
[9] = system: Aβ42 induced neurotoxicity in SH-SY5Y cells; assay: Anti-Aβ42 neurotoxicity assay in SH-SY5Y cells; format: cell-based, human

T1 sequence (P49841 whole entry): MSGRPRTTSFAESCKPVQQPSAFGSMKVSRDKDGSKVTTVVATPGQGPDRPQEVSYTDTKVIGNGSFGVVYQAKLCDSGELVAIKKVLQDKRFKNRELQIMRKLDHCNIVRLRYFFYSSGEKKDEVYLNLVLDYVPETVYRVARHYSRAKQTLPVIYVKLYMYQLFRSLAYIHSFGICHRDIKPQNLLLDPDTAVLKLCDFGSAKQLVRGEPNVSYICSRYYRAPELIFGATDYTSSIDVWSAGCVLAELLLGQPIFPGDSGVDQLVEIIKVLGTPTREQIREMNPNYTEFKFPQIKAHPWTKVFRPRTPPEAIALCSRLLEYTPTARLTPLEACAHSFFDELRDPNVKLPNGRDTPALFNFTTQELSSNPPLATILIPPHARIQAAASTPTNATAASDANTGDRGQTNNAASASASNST

Structure (SMILES): O=C([O-])[O-].[Li+].[Li+] [Lithium carbonate, lithium carbonate]
pIC50 [1]: 2.70

Structure (SMILES): O=c1cc(-c2ccc(O)c(O)c2)oc2cc(O)c([C@@H]3O[C@H](CO)[C@@H](O)[C@H](O)[C@H]3O)c(O)c12 [compound 1, isoorientin]
effective dose protecting SH-SY5Y cells from Aβ42 (morphology) [2]: 200 μM | pEC50 ([2]; read-out: neuroprotective potency, EC50, parent compound): 4.33

Structure (SMILES): O=c1cc(-c2ccc(O)c(O)c2)oc2c([C@@H]3O[C@H](CO)[C@@H](O)[C@H](O)[C@H]3O)c(O)cc(O)c12 [compound 3, orientin, reference compound]
pIC50 ([3]; GSK-3β inhibition, IC50, as stated in text): < 2.30

fold increase of potency against GSK-3β in comparison with 1 ([3]; ratio of IC50 values relative to isoorientin 1): 1.37 fold
Structure (SMILES): COC(=O)[C@H]1O[C@@H](c2c(OC)cc3oc(-c4ccc(OC)c(OC)c4)cc(=O)c3c2OC)[C@H](O)[C@@H](O)[C@@H]1O [compound 7, Methyl (2S,3S,4R,5R,6S)-6-(2-(3,4-Dimethoxyphenyl)-5,7-dimethoxy-4-oxo-4H-chromen-6-yl)-3,4,5-trihydroxytetrahydro-2H-pyran-2-carboxylate]

Structure (SMILES): COc1ccc(-c2cc(=O)c3c(OC)c([C@@H]4O[C@H](C(=O)NC(C)C)[C@@H](O)[C@H](O)[C@H]4O)c(OC)cc3o2)cc1OC [compound 9, (2S,3S,4R,5R,6S)-6-(2-(3,4-Dimethoxyphenyl)-5,7-dimethoxy-4-oxo-4H-chromen-6-yl)-3,4,5-trihydroxy-N-isopropyltetrahydro-2H-pyran-2-carboxamide]
Ligand-lipophilic efficiency (LiPE) [3]: ≥ 4 | effect on GSK-3β mediated tau hyperphosphorylation (pS396) [4]: effectively attenuated tau hyperphosphorylation in a dose-dependent manner | Papp at 5 h, 20 μM [5]: > 1.5 ×10⁻⁶ cm/s

Structure (SMILES): COc1ccc(-c2cc(=O)c3c(OC)c([C@@H]4O[C@H](C(=O)NC5CCCCC5)[C@@H](O)[C@H](O)[C@H]4O)c(OC)cc3o2)cc1OC [compound 17, (2S,3S,4R,5R,6S)-N-Cyclohexyl-6-(2-(3,4-dimethoxyphenyl)-5,7-dimethoxy-4-oxo-4H-chromen-6-yl)-3,4,5-trihydroxytetrahydro-2H-pyran-2-carboxamide]
effect on GSK-3β mediated tau hyperphosphorylation (pS396) [4]: effectively attenuated tau hyperphosphorylation in a dose-dependent manner | Papp at 5 h, 20 μM [5]: > 1.5 ×10⁻⁶ cm/s

Structure (SMILES): COc1ccc(-c2cc(=O)c3c(OC)c([C@@H]4O[C@H](C(=O)NCc5ccccc5)[C@@H](O)[C@H](O)[C@H]4O)c(OC)cc3o2)cc1OC [compound 21, (2S,3S,4R,5R,6S)-6-(2-(3,4-Dimethoxyphenyl)-5,7-dimethoxy-4-oxo-4H-chromen-6-yl)-3,4,5-trihydroxy-N-benzyltetrahydro-2H-pyran-2-carboxamide]
effect on GSK-3β mediated tau hyperphosphorylation (pS396) [4]: effectively attenuated tau hyperphosphorylation in a dose-dependent manner | Papp at 5 h, 20 μM [5]: 1 to 1.5 ×10⁻⁶ cm/s

Structure (SMILES): COc1ccc(-c2cc(=O)c3c(OC)c([C@@H]4O[C@H](C(=O)N[C@@H](C)C(F)(F)F)[C@@H](O)[C@H](O)[C@H]4O)c(OC)cc3o2)cc1OC [compound 30, (2S,3S,4R,5R,6S)-6-(2-(3,4-Dimethoxyphenyl)-5,7-dimethoxy-4-oxo-4H-chromen-6-yl)-3,4,5-trihydroxy-N-((S)-1,1,1-trifluoropropan-2-yl)tetrahydro-2H-pyran-2-carboxamide]
selectivity to GSK-3β versus GSK-3α ([3]; 5 μM, ratio of % inhibition): 12.3 fold | fold increased potency against GSK-3β compared to 9 ([3]; 30 compared to 9): approximately 9 fold | fold more potent against GSK-3β than epimer 31 ([3]; 30 compared to 31): about 4 fold | anti-tau effect relative to TDZD-8 ([4]; 10 μM, TDZD-8 at the same concentration): comparable to TDZD-8 | effect on GSK-3β mediated tau hyperphosphorylation (pS396) [4]: effectively attenuated tau hyperphosphorylation in a dose-dependent manner | inhibition mode with respect to substrate GS2 ([6]; ATP 10 μM, GS2 8 to 66 μM): competed with the substrate GS2 | inhibition mode with respect to ATP ([6]; GS2 17 μM, ATP 2 to 50 μM): no competition between ATP and 30 | inhibition of 40 out of 41 kinases in the test panel [7]: marginal or weak inhibition | dose with no observable cytotoxicity [8]: ≤ 1000 µM | cell viability recovered (from 40% with Aβ42 alone) ([9]; pretreatment 1.25 to 20 μM for 1 h, then 10 μM Aβ42 for 72 h, dose-dependent): 100% | effective dose protecting SH-SY5Y cells from Aβ42 (morphology) ([9]; pretreatment, 10 μM Aβ42, 72 h): 10 μM | recovery at 5 h, 20 μM ([5]; pH 7.4): 30% | Papp at 5 h, 20 μM [5]: > 1.5 ×10⁻⁶ cm/s

Ligand-lipophilic efficiency (LiPE) [3]: ≥ 4
Structure (SMILES): COc1ccc(-c2cc(=O)c3c(OC)c([C@@H]4O[C@H](C(=O)N[C@H](C)C(F)(F)F)[C@@H](O)[C@H](O)[C@H]4O)c(OC)cc3o2)cc1OC [compound 31, (2S,3S,4R,5R,6S)-6-(2-(3,4-Dimethoxyphenyl)-5,7-dimethoxy-4-oxo-4H-chromen-6-yl)-3,4,5-trihydroxy-N-((R)-1,1,1-trifluoropropan-2-yl)tetrahydro-2H-pyran-2-carboxamide]
